The values below come from ChEMBL document CHEMBL1201862, “PubChem BioAssay data set” (2004).

Each structure is given as a SMILES string.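 These data come from cells grown in 96-well plates and exposed to compound for 48 hours at five concentrations. The concentration for 50% growth inhibition is given as GI50.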 Calls of active or inactive are those of the source. Rule as the data show it: active = GI50 up to about 1.1 µM and inactive = higher.

Among the test systems are NCI-H522; SK-MEL-2; SK-OV-3; SR; LOX IMVI; A549; ACHN; RPMI-8226; U-251; KM12; HOP-62; COLO 205; NCI-H226; SW-620; T47D; DU-145; CAKI-1; OVCAR-4; PC-3.
Holding throughout (assay): NCI anticancer screen, dose series, 48 h

As for `O=S(=O)(NCn1ccc2ccccc21)c1ccccc1`, the GI50 with NCI-H522 is > 100 µM (inactive); in the test with SK-MEL-2, > 100 µM (inactive); in the test with SK-OV-3, > 100 µM (inactive); in the test on SR it was 31.6 µM (inactive); with LOX IMVI, 66.5 µM (inactive); with A549 it was > 100 µM (inactive). The GI50 in the test on ACHN was 97.5 µM (inactive); with RPMI-8226 it was 21.5 µM (inactive); in the test with U-251, > 100 µM (inactive); in the test with KM12 it was > 60.7 µM (inactive); in the test on HOP-62, > 100 µM (inactive); with COLO 205, > 79.8 µM (inactive). For the same compound, the GI50 with NCI-H226 is > 100 µM (inactive); in the test on SW-620 it was 38.4 µM (inactive).
With `Cc1cc(S(N)(=O)=O)c(S/C(=N\Nc2ccc([N+](=O)[O-])cc2)c2ccc(Cl)cc2)cc1Cl`, the GI50 in the test with NCI-H522 is 3.21 µM (inactive); in the test on SK-MEL-2, 2.76 µM (inactive); in the test with SK-OV-3, 1.96 µM (inactive); with SR, 2.94 µM (inactive); with LOX IMVI it was 2.1 µM (inactive); in the test with A549, 2.55 µM (inactive). Besides, the GI50 with T47D was 3.07 µM (inactive); in the test with ACHN, 2.96 µM (inactive); with DU-145, 2.19 µM (inactive); with RPMI-8226 it was 2.58 µM (inactive); in the test on U-251, 2.25 µM (inactive); in the test with KM12, 1.94 µM (inactive). Besides, the GI50 in the test with HOP-62 is 3.18 µM (inactive); in the test on CAKI-1, 3.42 µM (inactive); in the test with COLO 205, 7.87 µM (inactive); with NCI-H226 it was 2.22 µM (inactive); in the test with SW-620, 3.22 µM (inactive); with OVCAR-4, 1.71 µM (inactive).
On to `Cc1ccc2ccccc2c1NC1=NCCO1`, for which the GI50 in the test on SK-OV-3 was > 100 µM (inactive); in the test on SR it was 34.2 µM (inactive); in the test on A549, > 100 µM (inactive); with T47D it was 41.7 µM (inactive); in the test on ACHN it was 76.6 µM (inactive); in the test with DU-145, > 100 µM (inactive). In addition, the GI50 is 36.2 µM (inactive) with RPMI-8226; > 100 µM (inactive) in the test with U-251; 75.3 µM (inactive) in the test on KM12; > 100 µM (inactive) in the test on HOP-62; > 100 µM (inactive) with COLO 205; 20.2 µM (inactive) in the test on NCI-H226. Besides, the GI50 in the test on SW-620 is > 100 µM (inactive); with OVCAR-4, 94.6 µM (inactive).
With `CC1CC(C)C2OC2(C)C[C@H](C)C(=O)NC(C)C(=O)N(C)[C@H](Cc2c(Br)[nH]c3ccccc23)C(=O)N[C@@H](c2ccc(O)cc2)CC(=O)O1` (stereo partly specified), the GI50 was 0.0504 µM (active) in the test on NCI-H522; 0.033 µM (active) in the test with SK-MEL-2; 0.433 µM (active) in the test with SK-OV-3; 0.277 µM (active) in the test on SR; 0.0466 µM (active) with LOX IMVI; 0.28 µM (active) in the test with A549. Moreover, the GI50 with ACHN is 2.16 µM (inactive); with RPMI-8226, 0.0355 µM (active); in the test with U-251, 0.0404 µM (active); in the test on KM12, 0.249 µM (active); in the test on HOP-62, 0.33 µM (active); in the test with CAKI-1, 1.09 µM (active). Also, the GI50 in the test with COLO 205 was 0.0214 µM (active); in the test with NCI-H226 it was 0.373 µM (active); in the test on SW-620, < 0.0262 µM (active); in the test on OVCAR-4, 0.22 µM (active).
Regarding `Cc1cc(C)nc(SCC(=O)OC2CC(C)CCC2C(C)C)n1` (stereo unspecified), the GI50 in the test with NCI-H522 is 18.8 µM (inactive); in the test on SK-MEL-2, 21.8 µM (inactive); with SK-OV-3 it was 23.9 µM (inactive); in the test with LOX IMVI, 20 µM (inactive); in the test with A549, 22.6 µM (inactive); with T47D, 14.8 µM (inactive). Also, the GI50 in the test on ACHN is 18.7 µM (inactive); with DU-145, 34.3 µM (inactive); in the test on RPMI-8226, 19.3 µM (inactive); in the test on U-251 it was 22.5 µM (inactive); with PC-3 it was 28.3 µM (inactive); in the test with KM12 it was 20.1 µM (inactive). In addition, the GI50 was 11.6 µM (inactive) in the test with HOP-62; 20.3 µM (inactive) in the test with CAKI-1; 16.7 µM (inactive) in the test with COLO 205; 19.9 µM (inactive) in the test with SW-620; 20.9 µM (inactive) with OVCAR-4.
Take `Fc1ccc2c3c([nH]c2c1)CCN(Cc1ccccc1)C3`: the GI50 with SK-OV-3 was 19.2 µM (inactive); in the test with SR, 18.3 µM (inactive); in the test on LOX IMVI, 16.9 µM (inactive); in the test with A549, 22.6 µM (inactive); with T47D it was 14.7 µM (inactive); in the test with ACHN, 22.8 µM (inactive). For the same compound, the GI50 in the test with DU-145 was 22.3 µM (inactive); with RPMI-8226, 27.7 µM (inactive); in the test on U-251 it was 19.7 µM (inactive); in the test with KM12 it was 15.3 µM (inactive); in the test with HOP-62, 15 µM (inactive); in the test with COLO 205, 20.5 µM (inactive). Besides, the figures for the GI50 with NCI-H226, with SW-620 and in the test with OVCAR-4 were 19 µM (inactive), 20.1 µM (inactive) and 24.6 µM (inactive), respectively.
In the case of `CC1(O)CCn2c(=O)c3cc4ccccc4cc3c(=O)n2C1O` (stereo unspecified), the GI50 with NCI-H522 was 22 µM (inactive); in the test with SK-MEL-2, > 100 µM (inactive); in the test on SK-OV-3 it was > 100 µM (inactive); in the test on SR it was > 100 µM (inactive); in the test with LOX IMVI it was > 100 µM (inactive); in the test on A549, > 100 µM (inactive). Moreover, the GI50 in the test with ACHN, in the test with RPMI-8226, in the test on U-251, in the test on KM12, in the test on HOP-62 and in the test on CAKI-1 was > 100 µM (inactive) each time. Moreover, the GI50 in the test on COLO 205, with NCI-H226 and with SW-620 was > 100 µM (inactive) each time.
Take `COc1cc2c(c(OC)c1OC)C(=O)CC2N` (stereo unspecified): the GI50 in the test on NCI-H522, in the test on SK-MEL-2, with SK-OV-3, in the test with LOX IMVI, in the test with A549 and with ACHN was > 100 µM (inactive) throughout. Moreover, the GI50 in the test with RPMI-8226, in the test on U-251, in the test on PC-3, in the test on KM12, in the test with CAKI-1 and in the test with COLO 205 was > 100 µM (inactive) in each case. In addition, the GI50 with NCI-H226, in the test with SW-620 and with OVCAR-4 was > 100 µM (inactive) in each case.
Turning to `CC(=O)Nc1ccccc1-c1nc2ccccc2nc1C`, the GI50 in the test on NCI-H522, in the test with SK-MEL-2, in the test on SK-OV-3, in the test on SR, with LOX IMVI and with A549 was > 100 µM (inactive) each time. For the same compound, the GI50 in the test with ACHN, with RPMI-8226, with U-251, with KM12, with HOP-62 and with CAKI-1 was > 100 µM (inactive) throughout. Moreover, the GI50 in the test on COLO 205, in the test with NCI-H226, with SW-620 and in the test on OVCAR-4 was > 100 µM (inactive) in each case.
`Cc1ccc(O)c(/N=N\c2c(O)cc(S(=O)(=O)O)c3ccccc23)c1`: the GI50 with SK-MEL-2 was 29.7 µM (inactive); in the test on SK-OV-3, 51.4 µM (inactive); in the test with SR it was 17.8 µM (inactive); in the test on A549, 54.6 µM (inactive); with ACHN, 40.5 µM (inactive); with RPMI-8226, 37.9 µM (inactive). Besides, the GI50 in the test with U-251 is 61.8 µM (inactive); in the test on PC-3 it was 33.7 µM (inactive); in the test on KM12 it was 21.8 µM (inactive); with HOP-62, 57.4 µM (inactive); with CAKI-1, 63.4 µM (inactive); with COLO 205 it was 67.6 µM (inactive). The GI50 with NCI-H226 is 14.1 µM (inactive); in the test with SW-620, 45.2 µM (inactive); with OVCAR-4 it was 66.1 µM (inactive).
As for `COC1O[C@@H]2CCN3C(=O)[C@@H](OC(=O)c4ccc([N+](=O)[O-])cc4)[C@H]1C23` (stereo partly specified), the GI50 in the test on NCI-H522, in the test with SK-OV-3, in the test on SR, in the test on LOX IMVI, in the test on A549 and with T47D was > 100 µM (inactive) each time. Moreover, the GI50 in the test with ACHN, in the test with DU-145, with RPMI-8226, with U-251, in the test on KM12 and in the test on HOP-62 was > 100 µM (inactive) throughout. Further, the GI50 with CAKI-1, with COLO 205, in the test on NCI-H226 and with SW-620 was > 100 µM (inactive) each time.
For the compound `CCOC(=O)CCC1(C(=O)OCC)CCCC1=O` (stereo unspecified), the GI50 was > 100 µM (inactive) in the test on NCI-H522; > 100 µM (inactive) with SK-MEL-2; > 100 µM (inactive) in the test with SK-OV-3; 25.4 µM (inactive) in the test with SR; 47.6 µM (inactive) in the test with LOX IMVI; > 100 µM (inactive) in the test on A549. Further, the GI50 was > 100 µM (inactive) with ACHN; 34.4 µM (inactive) with RPMI-8226; > 100 µM (inactive) in the test with U-251; > 100 µM (inactive) with KM12; > 100 µM (inactive) in the test with HOP-62; > 100 µM (inactive) in the test on CAKI-1. Besides, the GI50 in the test with COLO 205, in the test on NCI-H226 and in the test with OVCAR-4 was > 100 µM (inactive) each time.
As for `O=C1NC2C(=O)N(Cc3ccccc3)C(=O)C2N1` (stereo unspecified), the GI50 in the test on NCI-H522, in the test with SK-OV-3, with SR, in the test on LOX IMVI, in the test on A549 and in the test with ACHN was > 100 µM (inactive) throughout. Moreover, the GI50 in the test on RPMI-8226, in the test with U-251, with KM12, with HOP-62, in the test on CAKI-1 and with COLO 205 was > 100 µM (inactive) in each case. For the same compound, the GI50 with NCI-H226, in the test with SW-620 and in the test with OVCAR-4 was > 100 µM (inactive) throughout.
